From article PMC12516728, “Harnessing the Estradienone Scaffold to Develop Dual GPBAR1 and LIFR Modulators for Liver Fibrosis” (Journal of Medicinal Chemistry, 2025)
Where two headings read alike, the source gives them in different places.

What was measured:
LIFR = target: T1, LIFR (Homo sapiens, UniProt P42702); assay: Luciferase reporter (transactivation) assay on HepG2 cells transfected with LIFR; type: cell-based; conditions: relative to LIF as 100%, mean ± SD
T1 construct: expressed in transfected cells; host or cells: HepG2
T1 sequence (P42702 45-1097): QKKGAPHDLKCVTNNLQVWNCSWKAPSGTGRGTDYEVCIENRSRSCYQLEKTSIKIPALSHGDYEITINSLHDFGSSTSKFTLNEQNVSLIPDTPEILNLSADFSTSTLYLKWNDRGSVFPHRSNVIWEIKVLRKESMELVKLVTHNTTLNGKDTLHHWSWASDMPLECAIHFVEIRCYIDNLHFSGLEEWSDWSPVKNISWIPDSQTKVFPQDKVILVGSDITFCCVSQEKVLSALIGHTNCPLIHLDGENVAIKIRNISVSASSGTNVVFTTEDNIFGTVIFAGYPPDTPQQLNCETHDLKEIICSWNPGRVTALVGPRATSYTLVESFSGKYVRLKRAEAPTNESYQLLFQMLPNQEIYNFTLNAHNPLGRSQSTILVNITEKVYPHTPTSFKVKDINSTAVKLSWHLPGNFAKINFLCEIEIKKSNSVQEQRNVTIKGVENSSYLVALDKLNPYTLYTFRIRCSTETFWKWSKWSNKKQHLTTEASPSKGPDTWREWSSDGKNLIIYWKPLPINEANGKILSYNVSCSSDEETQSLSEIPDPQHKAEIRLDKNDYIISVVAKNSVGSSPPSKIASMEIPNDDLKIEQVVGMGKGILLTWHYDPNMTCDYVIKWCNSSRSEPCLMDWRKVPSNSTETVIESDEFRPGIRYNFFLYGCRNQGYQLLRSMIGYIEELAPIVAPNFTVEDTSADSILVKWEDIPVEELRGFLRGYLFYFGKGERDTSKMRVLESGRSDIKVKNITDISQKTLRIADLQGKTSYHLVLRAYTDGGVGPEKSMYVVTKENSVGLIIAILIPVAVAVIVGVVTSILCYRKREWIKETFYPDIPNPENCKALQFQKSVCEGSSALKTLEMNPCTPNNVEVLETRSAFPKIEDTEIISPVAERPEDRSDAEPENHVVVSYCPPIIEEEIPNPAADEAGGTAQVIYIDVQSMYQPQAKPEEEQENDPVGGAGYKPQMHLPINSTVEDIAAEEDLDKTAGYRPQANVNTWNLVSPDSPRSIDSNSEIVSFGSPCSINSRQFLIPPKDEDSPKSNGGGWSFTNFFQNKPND
Protocol: (§1) Hek293T cells, obtained from ATCC (Manassas, VA, USA), were cultured in a D-MEM medium (Sigma-Merk Life Science S.r.l., Milan, Italy) enriched with 10% fetal bovine serum, 1% L-glutamine, and 1% penicillin/streptomycin. HEPG2 cells, also from ATCC, were grown in an MEM medium (Euroclone, reference ECB2071L) supplemented with 10% fetal bovine serum (Euroclone, reference ECS5000L), 1% L-glutamine (Euroclone, reference ECB3000D), and 1% penicillin/streptomycin (Euroclone, reference ECB3001D). All cultures were maintained in a humidified environment with 5% CO2 at 37 °C. Additionally, it was confirmed that the cells were free from Mycoplasma contamination, as verified using the Mycoplasma PCR Detection Kit (Aurogene, reference G238).
(§2) The luciferase reporter gene assay protocol takes place over four days. On the first day, HEPG2 or HEK293T cells are seeded in a 24-well plate at a density of 7.5 × 10^4 cells/well for HEPG2 or 2.5 × 10^4 cells/well for HEK293T. On the second day, cells are transiently transfected, preparing a separate mix for each receptor. To assess the phosphorylation of STAT3 signaling, HEPG2 cells were transfected with 200 ng of the reporter vector containing the Pgl4.47 response element, along with 100 ng each of LIFR, IL6ST (gp130), and pGL4.70 (Promega, Madison, WI), a vector encoding the human Renilla gene. The following day, the cells were stimulated with 10 ng/mL LIF, either alone or in combination with 2o at concentrations of 0.1, 1, 10, 25, and 50 μM, to generate a dose–response curve. For GPBAR1 agonism, HEK293T cells were transfected with 200 ng of the reporter vector pG29-CRE-LUC, 150 ng of pcmvsport-hTGR5, and 150 ng of pGL4.70, the human Renilla gene. The following day, cells were stimulated with 10 μM TLCA alone as a positive control and compound 2o at concentrations of 1 and 10 nM, as well as 0.1, 1, 2.5, 5, 10, 20, and 30 μM, to generate a dose–response curve. On the final day, cellular lysates were analyzed for luciferase and Renilla activities using the Dual-Luciferase Reporter Assay System (Promega, Madison, WI). pLuminescence was measured with a Glomax 20/20 luminometer (Promega, Madison, WI), and luciferase activities were normalized to Renilla activities.

GPBAR1 = target: T2, GPBAR1 (Homo sapiens, UniProt Q8TDU6); assay: Luciferase reporter (transactivation) assay on HEK293T cells transfected with GPBAR1; type: cell-based; conditions: HEK-293T, relative to TLCA (10 μM) as 100%, mean ± SD, na = not active, read-out: GPBAR1 eff % (10 μM)
T2 construct: expressed in transfected cells; host or cells: HEK293T
T2 sequence (Q8TDU6 1-330): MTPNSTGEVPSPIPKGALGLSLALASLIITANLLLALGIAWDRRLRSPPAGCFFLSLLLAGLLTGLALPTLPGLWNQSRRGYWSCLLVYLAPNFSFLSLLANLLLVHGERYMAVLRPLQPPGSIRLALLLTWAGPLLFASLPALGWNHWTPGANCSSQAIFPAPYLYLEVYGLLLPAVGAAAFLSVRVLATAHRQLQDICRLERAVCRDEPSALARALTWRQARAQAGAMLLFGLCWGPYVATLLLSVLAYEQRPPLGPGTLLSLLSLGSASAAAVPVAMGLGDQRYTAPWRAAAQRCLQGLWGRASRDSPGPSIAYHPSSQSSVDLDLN
Protocol: as §1, §2

[1] = target: T3, LIF-LIFR interaction (recombinant human LIFR His-Tag / biotinylated LIF) (Homo sapiens, UniProt P42702); assay: Cell-free AlphaScreen assay of LIF-LIFR interaction; type: binding; conditions: for inhibition at 10 µM: read-out: % LIFR inhibition (10 μM); for inhibition at 50 µM: read-out: % LIFR inhibition (50 μM)
T3 construct: purchased Sino Biological (LIFR); R&D Systems (LIF)
T3 sequence (P42702 45-833 limits assumed): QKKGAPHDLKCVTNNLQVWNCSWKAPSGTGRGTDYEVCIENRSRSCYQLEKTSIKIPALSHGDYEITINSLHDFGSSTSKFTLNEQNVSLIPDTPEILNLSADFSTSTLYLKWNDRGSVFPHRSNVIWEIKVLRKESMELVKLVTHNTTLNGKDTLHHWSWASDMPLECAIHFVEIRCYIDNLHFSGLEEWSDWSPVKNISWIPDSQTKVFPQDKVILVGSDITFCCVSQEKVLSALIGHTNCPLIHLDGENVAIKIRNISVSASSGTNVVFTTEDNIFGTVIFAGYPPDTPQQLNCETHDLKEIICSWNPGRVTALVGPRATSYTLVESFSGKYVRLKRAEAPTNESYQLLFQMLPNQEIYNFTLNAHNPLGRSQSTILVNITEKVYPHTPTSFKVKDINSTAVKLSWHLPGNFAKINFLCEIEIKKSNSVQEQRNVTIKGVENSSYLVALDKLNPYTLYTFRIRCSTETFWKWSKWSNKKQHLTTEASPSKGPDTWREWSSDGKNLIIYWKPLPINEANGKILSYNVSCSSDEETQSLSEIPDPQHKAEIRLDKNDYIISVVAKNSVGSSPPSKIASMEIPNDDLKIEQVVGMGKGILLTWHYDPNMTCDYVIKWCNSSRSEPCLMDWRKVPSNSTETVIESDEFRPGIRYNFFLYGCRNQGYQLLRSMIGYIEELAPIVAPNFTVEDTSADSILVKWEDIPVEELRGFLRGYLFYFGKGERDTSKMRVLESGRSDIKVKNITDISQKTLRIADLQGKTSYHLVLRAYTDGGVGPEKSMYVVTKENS
Protocol: Recombinant human LIFR (His-Tag) and LIF (biotinylated) were purchased from Sino Biologicals (Sino Biological Europe GmbH, Dusseldorf, Germany) and R&D Systems (Abingdon, UK), respectively, and both were reconstituted as required by the manufacturer. Inhibition of LIFR/LIF binding was measured by AlphaScreen, in white, low-volume, 384-well AlphaPlates (PerkinElmer, Waltham, MA, USA) using a final volume of 15 μL and an assay buffer containing 25 mM Hepes (pH 7.4), 100 mM NaCl, and 0.005% Kathon. The concentration of DMSO in each well was maintained at 5% v/v. […] Then, streptavidin donor beads were added (final concentration 20 ng/μL), and the plate was incubated in the dark for 2 h and then read in an EnSpire Alpha multimode plate reader (PerkinElmer, Waltham, MA, USA). […] Each concentration was tested in triplicate (N = 3). When present, outliers were removed, resulting in N = 2. Data, reported as averaged intensity values ± standard deviation and N, were exploited to fit the curves through GraphPad Prism 8.

## C[C@]12C[C@H](c3ccc(-c4ccccc4)cc3)C3=C4CCC(=O)C=C4CC[C@H]3[C@@H]1CCC2=O [Compound 1a]
LIFR
  inhibition at 10 µM: 33.8 ± 3.7%
GPBAR1
  Emax at 10 µM: 44.8 ± 5.1%
[1]
  IC50: 1.42 ± 0.2 µM
  inhibition at 10 µM: 62.4 ± 9.2%
  inhibition at 50 µM: 76.4 ± 4.1%

## CN(C)c1ccc([C@H]2C[C@]3(C)C(=O)CC[C@H]3[C@@H]3CCC4=CC(=O)CCC4=C32)cc1 [Compound 1b]
LIFR
  inhibition at 10 µM: 104 ± 2.5%
GPBAR1
  Emax at 10 µM: 21.7 ± 0.3%
[1]
  IC50: 0.535 ± 0.209 µM
  inhibition at 10 µM: 60 ± 14.7%
  inhibition at 50 µM: 84.3 ± 1.4%

## C[C@]12C[C@H](c3ccccc3)C3=C4CCC(=O)C=C4CC[C@H]3[C@@H]1CCC2=O [Compound 1c, 11β-Phenylestra-4,9-dien-3,17-dione]
LIFR
  inhibition at 10 µM: 76.8 ± 6.7%
GPBAR1
  Emax at 10 µM: 35 ± 1.5%
[1]
  IC50: 26.9 ± 3.12 µM
  inhibition at 10 µM: 34.3 ± 11.2%
  inhibition at 50 µM: 40.5 ± 4.18%

## COc1ccc(C[C@H]2C[C@]3(C)C(=O)CC[C@H]3[C@@H]3CCC4=CC(=O)CCC4=C23)cc1 [Compound 1d, 11β-(4-Methoxybenzyl)estra-4,9-dien-3,17-dione]
LIFR
  inhibition at 10 µM: 92 ± 7%
[1]
  IC50: 43.1 ± 4.6 µM
  inhibition at 10 µM: 26.5 ± 6.2%
  inhibition at 50 µM: 41.1 ± 8%

## C[C@]12C[C@H](Cc3ccc(O)cc3)C3=C4CCC(=O)C=C4CC[C@H]3[C@@H]1CCC2=O [Compound 1e, 11β-(4-Hydroxybenzyl)estra-4,9-dien-3,17-dione]
LIFR
  inhibition at 10 µM: 29.1 ± 1.4%
GPBAR1
  Emax at 10 µM: 9 ± 4%
[1]
  IC50: 45.6 ± 10.5 µM
  inhibition at 10 µM: 29.3 ± 6.7%
  inhibition at 50 µM: 35.1 ± 13%

## C[C@]12C[C@H](c3ccc(I)cc3)C3=C4CCC(=O)C=C4CC[C@H]3[C@@H]1CCC2=O [Compound 1f, 11β-(4-Iodophenyl)estra-4,9-dien-3,17-dione]
LIFR
  inhibition at 10 µM: 89.9 ± 1.2%
[1]
  IC50: 9.78 ± 1.75 µM
  inhibition at 10 µM: 45.4 ± 1.3%
  inhibition at 50 µM: 61.3 ± 7.5%

## C[C@]12C[C@H](c3ccc(C4CC4)cc3)C3=C4CCC(=O)C=C4CC[C@H]3[C@@H]1CCC2=O [Compound 1g, 11β-(4-Cyclopropylphenyl)-estra-4,9-dien-3,17-dione]
LIFR
  inhibition at 10 µM: 51.1 ± 1.4%
GPBAR1
  Emax at 10 µM: 16.5 ± 1.5%
[1]
  IC50: 9.42 ± 2.32 µM
  inhibition at 10 µM: 45.1 ± 1.9%
  inhibition at 50 µM: 62.1 ± 6.1%

## C[C@]12C[C@H](c3ccc(-c4ccc(Br)nc4)cc3)C3=C4CCC(=O)C=C4CC[C@H]3[C@@H]1CCC2=O [Compound 2d]
LIFR
  inhibition at 10 µM: 88.8 ± 3.4%
[1]
  IC50: 5.54 ± 1.39 µM
  inhibition at 10 µM: 42.1 ± 2.3%
  inhibition at 50 µM: 64.4 ± 7.5%

## COC(=O)c1cccc(-c2ccc([C@H]3C[C@]4(C)C(=O)CC[C@H]4[C@@H]4CCC5=CC(=O)CCC5=C43)cc2)c1 [Compound 2s]
LIFR
  inhibition at 10 µM: 80.8 ± 0.9%
GPBAR1
  Emax at 10 µM: > 50%
[1]
  IC50: 0.159 ± 0.06 µM
  inhibition at 10 µM: 63.6 ± 4.1%
  inhibition at 50 µM: 74.3 ± 14.1%

## C[C@]12C[C@H](c3ccc(-c4cccc(C(=O)O)c4)cc3)C3=C4CCC(=O)C=C4CC[C@H]3[C@@H]1CCC2=O [Compound 2t]
LIFR
  inhibition at 10 µM: 38.7 ± 0.6%
GPBAR1
  Emax at 10 µM: 20.4 ± 1.4%
[1]
  IC50: 24.8 ± 2.8 µM
  inhibition at 10 µM: 22.8 ± 5.1%
  inhibition at 50 µM: 62.3 ± 7.3%

## CC#C[C@]1(O)CC[C@H]2[C@@H]3CCC4=CC(=O)CCC4=C3[C@@H](c3ccc(N(C)C)cc3)C[C@@]21C [Mifepristone, mifepristone, reference compound]
[1]; 10 μM, LIF-LIFR signal without compound set as 100% interaction, mean ± SD
  inhibition at 10 µM: 70.5 ± 3.7%
[1]; 50 μM, LIF-LIFR signal without compound set as 100% interaction, mean ± SD
  inhibition at 50 µM: 94.6 ± 7.3%
[1]; inhibition of LIF-LIFR interaction, ± SD, read-out: IC50
  IC50: 0.366 ± 0.063 µM
